Test system: Human alphaherpesvirus 1
Test: In vitro antiviral activity by means of plaque-inhibition assay with monolayers of Vero cells infected with the MP strain of herpes simplex virus-1 (HSV-1)
Type: functional
Details: Human alphaherpesvirus 1, Vero; read-out: ED50 (the source's name)

For CCCCn1cnc2c(C)nn(C3O[C@H](CO)[C@@H](O)[C@H]3O)c2c1=O (some centres undefined), the EC50 was 152 µM.

In the case of COc1ccc(Cn2cnc3c(C)nn(C4O[C@H](CO)[C@@H](O)[C@H]4O)c3c2=O)cc1 (some centres undefined), the EC50 is reported as 49.5 µM.

Work on Cc1nn(C2O[C@H](CO)[C@@H](O)[C@H]2O)c2c(=O)n(Cc3ccc(Cl)cc3)cnc12 (some centres undefined) yielded an EC50 of 220 µM.

Cc1nn(C2O[C@H](CO)[C@@H](O)[C@H]2O)c2c(=O)n(-c3ccc(Cl)cc3)cnc12 (some centres undefined) showed an EC50 of 50 µM.

Cc1nn(C2O[C@H](CO)[C@@H](O)[C@H]2O)c2c(=O)n(Cc3ccccc3)cnc12 (some centres undefined) was tested, and the EC50 was 245 µM.

With Cc1ccc(-n2cnc3c(C)nn(C4O[C@H](CO)[C@@H](O)[C@H]4O)c3c2=O)cc1 (some centres undefined) the EC50 was 280 µM.

Cc1nn(C2O[C@H](CO)[C@@H](O)[C@H]2O)c2c(=O)n(CCC(C)C)cnc12 (some centres undefined) showed an EC50 of 350 µM.

For O=c1[nH]c(=O)n([C@H]2C[C@H](O)[C@@H](CO)O2)cc1I [IDOXURIDINE], the EC50 was 1.2 µM.

With Cc1nn(C2O[C@H](CO)[C@@H](O)[C@H]2O)c2c(=O)n(CCc3ccccc3)cnc12 (some centres undefined) the EC50 was 174 µM.

From ChEMBL document CHEMBL1122714, “Pyrazolo[4,3-d]pyrimidine nucleosides. Synthesis and antiviral activity of 1-beta-D-ribofuranosyl-3-methyl-6-substituted-7H-pyrazolo[4,3-d]pyr imi din-7-ones” (1984)
